Assay results published in ChEMBL document CHEMBL1135871, “Sordarin oxazepine derivatives as potent antifungal agents” (2002).
In brackets after ≈: the same amount, converted by molar mass.

Tests used:
Assay type in all cases: functional
Nakaseomyces glabratus = assay: Minimum inhibitory concentration required to inhibit 90-100%growth of Candida glabrata
Candida albicans = assay: Minimum inhibitory concentration required to inhibit 90-100%growth of Candida albicans
Cryptococcus neoformans = assay: Minimum inhibitory concentration required to inhibit 90-100% growth of Cryptococcus neoformans

| Structure (SMILES) | MIC (Nakaseomyces glabratus) [µg/mL] | MIC (Candida albicans) [µg/mL] | MIC (Cryptococcus neoformans) [µg/mL] |
| --- | --- | --- | --- |
| CC(C)C1=CC2CC3(C=O)[C@@H]4CC[C@@H](C)[C@H]4CC2(CO[C@@H]2O[C@H](C)CN(CCC4=CCCCC4)C[C@@H]2O)[C@]13C(=O)O | > 128 | 2 (≈ 3.51 µM) | > 128 |
| C=C(Cl)CN1C[C@H](OCC23C[C@@H]4[C@H](C)CC[C@H]4C4(C=O)CC2C=C(C(C)C)[C@@]34C(=O)O)O[C@H](C)C1 | 0.125 (≈ 0.247 µM) | < 0.06 | 16 (≈ 31.6 µM) |
| CC(C)C1=CC2CC3(C=O)[C@@H]4CC[C@@H](C)[C@H]4CC2(CO[C@@H]2O[C@H](C)CN(CCC(F)(F)F)C[C@@H]2O)[C@]13C(=O)O | 32 (≈ 57.4 µM) | 1 (≈ 1.79 µM) | > 128 |
| COc1ccc(CN2C[C@@H](C)O[C@@H](OCC34C[C@@H]5[C@H](C)CC[C@H]5C5(C=O)CC3C=C(C(C)C)[C@@]45C(=O)O)[C@@H](O)C2)cc1 | 1 (≈ 1.72 µM) | < 0.06 | > 128 |
| CC(C)C1=CC2CC3(C=O)[C@@H]4CC[C@@H](C)[C@H]4CC2(CO[C@@H]2O[C@H](C)[C@@H](O)[C@@H](O)[C@@H]2O)[C@]13C(=O)O | > 128 | > 128 | > 128 |
| COc1ccc(N2C[C@@H](C)O[C@@H](OCC34C[C@@H]5[C@H](C)CC[C@H]5C5(C=O)CC3C=C(C(C)C)[C@@]45C(=O)O)[C@@H](O)C2)cc1 | 64 (≈ 113 µM) | 2 (≈ 3.52 µM) | > 128 |
| CC(C)C1=CC2CC3(C=O)[C@@H]4CC[C@@H](C)[C@H]4CC2(CO[C@@H]2O[C@H](C)CN(CCc4ncc[nH]4)C[C@@H]2O)[C@]13C(=O)O | > 128 | > 128 | > 128 |
| Cc1coc(CN2C[C@@H](C)O[C@@H](OCC34C[C@@H]5[C@H](C)CC[C@H]5C5(C=O)CC3C=C(C(C)C)[C@@]45C(=O)O)[C@@H](O)C2)c1 | > 128 | 2 (≈ 3.6 µM) | 32 (≈ 57.6 µM) |
| CC(C)C1=CC2CC3(C=O)[C@@H]4CC[C@@H](C)[C@H]4CC2(CO[C@@H]2O[C@H](C)CN(Cc4ccccc4Cl)C[C@@H]2O)[C@]13C(=O)O | > 128 | 2 (≈ 3.41 µM) | 128 (≈ 218 µM) |
| CC(C)C1=CC2CC3(C=O)[C@@H]4CC[C@@H](C)[C@H]4CC2(CO[C@@H]2O[C@H](C)CN(Cc4cccs4)C[C@@H]2O)[C@]13C(=O)O | 128 (≈ 229 µM) | 2 (≈ 3.59 µM) | 32 (≈ 57.4 µM) |
| C=C(Cl)CN1C[C@@H](C)O[C@@H](OCC23C[C@@H]4[C@H](C)CC[C@H]4C4(C=O)CC2C=C(C(C)C)[C@@]34C(=O)O)[C@@H](OC)C1 | 64 (≈ 116 µM) | 4 (≈ 7.27 µM) | > 128 |
| C=C(Cl)CN1C[C@@H](C)O[C@@H](OCC23C[C@@H]4[C@H](C)CC[C@H]4C4(C=O)CC2C=C(C(C)C)[C@@]34C(=O)O)[C@@H](OC(C)=O)C1 | 16 (≈ 27.7 µM) | 8 (≈ 13.8 µM) | > 128 |
| C=C(Cl)CN1C[C@@H](C)O[C@@H](OCC23C[C@@H]4[C@H](C)CC[C@H]4C4(C=O)CC2C=C(C(C)C)[C@@]34C(=O)O)[C@H](F)C1 | 2 (≈ 3.72 µM) | < 0.06 | 16 (≈ 29.7 µM) |
| C=CCN1C[C@@H](C)O[C@@H](OCC23C[C@@H]4[C@H](C)CC[C@H]4C4(C=O)CC2C=C(C(C)C)[C@@]34C(=O)O)[C@@H](O)C1 | 128 (≈ 255 µM) | 8 (≈ 15.9 µM) | > 128 |
| C=C(Cl)CN1C[C@@H](C)O[C@@H](OCC23C[C@@H]4[C@H](C)CC[C@H]4C4(C=O)CC2C=C(C(C)C)[C@@]34C(=O)O)[C@@H](O)C1 | 32 (≈ 59.7 µM) | 0.5 (≈ 0.933 µM) | 4 (≈ 7.46 µM) |
| C=C(Cl)CN1CC[C@H](OCC23C[C@@H]4[C@H](C)CC[C@H]4C4(C=O)CC2C=C(C(C)C)[C@@]34C(=O)O)O[C@H](C)C1 | 2 (≈ 3.85 µM) | 0.125 (≈ 0.24 µM) | 1 (≈ 1.92 µM) |
| CC(C)C1=CC2CC3(C=O)[C@@H]4CC[C@@H](C)[C@H]4CC2(CO[C@@H]2O[C@H](C)CN(CC4CC4)C[C@@H]2O)[C@]13C(=O)O | > 128 | > 16 | > 128 |
| C=C(C)CN1C[C@@H](C)O[C@@H](OCC23C[C@@H]4[C@H](C)CC[C@H]4C4(C=O)CC2C=C(C(C)C)[C@@]34C(=O)O)[C@@H](O)C1 | 64 (≈ 124 µM) | 0.125 (≈ 0.242 µM) | > 64 |
| COCCN1C[C@@H](C)O[C@@H](OCC23C[C@@H]4[C@H](C)CC[C@H]4C4(C=O)CC2C=C(C(C)C)[C@@]34C(=O)O)[C@@H](O)C1 | > 128 | 16 (≈ 30.8 µM) | > 128 |
| CO[C@H]1[C@@H](O)[C@H](O)[C@H](OC[C@@]23C[C@@H]4[C@H](C)CC[C@H]4[C@@]4(C=O)CC2C=C(C(C)C)[C@@]34C(=O)O)O[C@@H]1C [SORDARIN] | > 128 | 16 (≈ 32.5 µM) | 8 (≈ 16.2 µM) |
